The results in this text go back to patent US20020019527A1 (priority 2000, published 2002).

Broadly, the inhibition is the drop in the measured response relative to a control, in per cent. Lower therefore signals little suppression. A word on the % Inhibition: it is the drop in the measured response relative to a control, in per cent. A higher % Inhibition goes with a response far below the control.

Structures can show the parent of a compound that is named as a salt.

T1 sequence (P49355 whole entry, one chain of several): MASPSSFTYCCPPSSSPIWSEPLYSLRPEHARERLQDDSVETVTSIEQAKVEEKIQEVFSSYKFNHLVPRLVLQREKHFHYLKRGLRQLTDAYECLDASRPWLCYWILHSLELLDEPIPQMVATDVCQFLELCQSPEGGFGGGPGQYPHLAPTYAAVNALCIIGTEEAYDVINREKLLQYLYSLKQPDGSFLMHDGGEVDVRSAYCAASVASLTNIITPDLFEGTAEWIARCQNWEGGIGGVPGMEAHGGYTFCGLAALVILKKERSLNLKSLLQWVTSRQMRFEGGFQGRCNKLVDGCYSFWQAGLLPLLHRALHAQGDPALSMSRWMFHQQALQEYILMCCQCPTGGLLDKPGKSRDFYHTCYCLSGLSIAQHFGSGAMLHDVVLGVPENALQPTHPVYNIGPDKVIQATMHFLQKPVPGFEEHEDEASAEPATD

The assay concerns the target T1, Farnesyltransferase (FTase) (Bos taurus, UniProt P29702+P49355).
T1 construct: precipitation from a beef brain homogenate; from tissue; host or cells: bovine brain
Nature of the assay: Farnesyltransferase inhibition (scintillation proximity assay, [3H]-FPP / biotin-K-ras peptide). The class given is biochemical, bovine. The following applies: compound at 10^−6 M; bovine FTase, 37° C., 30 minutes. Summed up: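 Bovine brain FTase, partially purified by 30–50% saturated ammonium sulfate precipitation and DEAE Sepharose chromatography, separated from GGTase I/II. Scintillation proximity read-out of [3H]-FPP transfer to biotin-K-ras peptide, counted 1 h after quench. Compounds added from ethanol with 10-fold dilution into assay.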
(In general: SPA uses beads or plates that emit light when radiolabelled molecules are held near them.)
In turn, `Cn1cncc1C(OCc1ccc(C#N)cc1)c1ccc(C#N)c(-c2ccccc2C=O)c1` (centres unmarked) [Example 200, 5-(((4-cyanobenzyl)oxy)(1-methyl-1H-imidazol-5-yl)methyl)-2′-formyl(1,1′-biphenyl)-2-carbonitrile hydrochloride] yielded an inhibition at 1 µM of 99%.
The compound `Cn1cncc1C(OCc1ccc(C#N)cc1)c1ccc(C#N)c(-c2ccccc2C(F)(F)F)c1` (centres unmarked) [Example 201, 5-(((4-cyanobenzyl)oxy)(1-methyl-1H-imidazol-5-yl)methyl)-2′-(trifluoromethyl)(1,1′-biphenyl)-2-carbonitrile hydrochloride] gave an inhibition at 1 µM of 99%.
Same read-out and setting: for `Cn1cncc1C(OCc1ccc(C#N)cc1)c1ccc(C#N)c(-c2ccc(Cl)cc2Cl)c1` (centres unmarked) [Example 202, 2′,4′-dichloro-5-(((4-cyanobenzyl)oxy)(1-methyl-1H-imidazol-5-yl)methyl)(1,1′-biphenyl)-2-carbonitrile hydrochloride] the value was 92%; for `Cn1cncc1C(OCc1ccc(C#N)cc1)c1ccc(C#N)c(-c2cc3ccccc3s2)c1` (centres unmarked) [Example 203, 2-(1-benzothien-2-yl)-4-(((4-cyanobenzyl)oxy)(1-methyl-1H-imidazol-5-yl)methyl)benzonitrile hydrochloride], 86%.
The same measure, in the same setting: then `Cn1cncc1C(OCc1ccc(C#N)cc1)c1ccc(C#N)c(-c2ccccc2CO)c1` (centres unmarked) [Example 204, 5-(((4-cyanobenzyl)oxy)(1-methyl-1H-imidazol-5-yl)methyl)-2′-(hydroxymethyl)(1,1′-biphenyl)-2-carbonitrile], with 96%.
In turn, `Cn1cncc1C(OCc1ccc(C#N)cc1)c1ccc(C#N)c(-c2ccccc2C(=O)O)c1` (centres unmarked) [Example 205, 2′-cyano-5′-(((4-cyanobenzyl)oxy)(1-methyl-1H-imidazol-5-yl)methyl)(1,1′-biphenyl)-2-carboxylic acid] yielded an inhibition at 1 µM of 90%.
For the compound `Cn1cncc1CN(Cc1ccc(C#N)cc1)C(=O)c1ccc(C#N)c(-c2cccc3cccnc23)c1` [Example 206, 4-cyano-N-(4-cyanobenzyl)-N-((1-methyl-1H-imidazol-5-yl)methyl)-3-(8-quinolinyl)benzamide], testing at 1 µM gave an inhibition of 88%.
The compound `Cn1cncc1CN(Cc1ccc(C#N)c(-c2cccc3ccccc23)c1)Cc1cc(OC(F)(F)F)ccc1O` [Example 207, 4-(((2-hydroxy-5-(trifluoromethoxy)benzyl)((1-methyl-1H-imidazol-5-yl)methyl)-amino)methyl)-2-(1-naphthyl)benzonitrile] returned an inhibition at 1 µM of 91%.
`COC(=O)c1ccc(CN(Cc2ccc(C#N)c(-c3cccc4ccccc34)c2)Cc2cncn2C)nc1` [Example 208, methyl 6-(((4-cyano-3-(1-naphthyl)benzyl)((1-methyl-1H-imidazol-5-yl)methyl)-amino)-methyl)nicotinate] showed an inhibition at 1 µM of 95%.
Still for that read-out and setting: then `CCOC(=O)N1CCC(N(Cc2ccc(C#N)c(-c3cccc4ccccc34)c2)Cc2cncn2C)CC1` [Example 209, ethyl 4-((4-cyano-3-(1-naphthyl)benzyl)((1-methyl-1H-imidazol-5-yl)methyl)-amino)-1-piperidinecarboxylate], with 93%.
Consider `Cc1ccccc1-c1cc(C(Cn2ccnc2)OCc2ccccc2)ccc1C#N` (centres unmarked) [Example 210, 5-(1-(benzyloxy)-2-(1H-imidazol-1-yl)ethyl)-2′-methyl(1,1′-biphenyl)-2-carbonitrile hydrochloride], for which the inhibition at 1 µM worked out at 48%.
On the same count and under the same terms, for `Cc1ccccc1-c1cc(C(O)c2cccnc2)ccc1C#N` (centres unmarked) [Example 211, 5-(hydroxy(3-pyridinyl)methyl)-2′-methyl(1,1′-biphenyl)-2-carbonitrile] the value was 30%.
Still for that read-out and setting: for `Cc1ccccc1-c1cc(CNc2cccnc2)ccc1C#N` [Example 212, 2′-methyl-5-((3-pyridinylamino)methyl)(1,1′-biphenyl)-2-carbonitrile] the value was 10%; for `Cc1ccccc1-c1cc(C(OCc2ccccc2)c2cncs2)ccc1C#N` (centres unmarked) [Example 213, 5-((benzyloxy)(1,3-thiazol-5-yl)methyl)-2′-methyl(1,1′-biphenyl)-2-carbonitrile hydrochloride], 41%.
The same measure, in the same setting: for `Cc1ccccc1-c1cc(C(O)c2cncs2)ccc1C#N` (centres unmarked) [Example 214, 5-(hydroxy(1,3-thiazol-5-yl)methyl)-2′-methyl(1,1′-biphenyl)-2-carbonitrile] the value was 20%.
The compound `Cc1ccccc1-c1cc(CN(Cc2ccccc2)Cc2cccnc2)ccc1C#N` [Example 215, 5-((benzyl(3-pyridinylmethyl)amino)methyl)-2′-methyl(1,1′-biphenyl)-2-carbonitrile hydrochloride] gave an inhibition at 1 µM of 29%.
On the same count and under the same terms, for `Cc1ccccc1-c1cc(NCc2cccnc2)ccc1C#N` [Example 216, 2′-methyl-5-((3-pyridinylmethyl)amino)(1,1′-biphenyl)-2-carbonitrile] the value was 27%; for `Cc1ccccc1-c1cc(N(Cc2ccccc2)Cc2cccnc2)ccc1C#N` [Example 217, 5-(benzyl(3-pyridinylmethyl)amino)-2′-methyl(1,1′-biphenyl)-2-carbonitrile], 71%; for `Cc1ccccc1-c1cc(NCc2cncn2C)ccc1C#N` [Example 225, 2′-methyl-5-(((1-methyl-1H-imidazol-5-yl)methyl)amino)(1,1′-biphenyl)-2-carbonitrile], 50%.
Still for that read-out and setting: for `Cc1ccccc1-c1cc(N(Cc2ccccc2)Cc2cncn2C)ccc1C#N` [Example 226, 5-(benzyl((1-methyl-1H-imidazol-5-yl)methyl)amino)-2′-methyl(1,1-biphenyl)-2-carbonitrile] the value was 100%.
On the same count and under the same terms, for `CN(Cc1cncn1C)c1ccc(C#N)c(-c2cccc3ccccc23)c1` [Example 227, 4-(methyl((1-methyl-1H-imidazol-5-yl)methyl)amino)-2-(1-naphthyl)benzonitrile] the value was 100%; for `C=CCN(Cc1cncn1C)c1ccc(C#N)c(-c2cccc3ccccc23)c1` [Example 228, 4-(allyl( (1-methyl-1H-imidazol-5-yl)methyl)amino)-2-(1-naphthyl)benzonitrile], 100%; for `Cc1ccccc1-c1cc(N(Cc2ccc(C#N)cc2)Cc2cncn2C)ccc1C#N` [Example 229, 5-((4-cyanobenzyl)((1-methyl-1H-imidazol-5-yl)methyl)amino)-2′-methyl(1,1′-biphenyl)-2-carbonitrile], 100%.
In the case of `Cn1cncc1CN(CCCc1ccccc1)c1ccc(C#N)c(-c2cccc3ccccc23)c1` [Example 230, 4-(((1-methyl-1H-imidazol-5-yl)methyl)(3-phenylpropyl)amino)-2-(1-naphthyl)benzonitrile], at 1 µM the inhibition was 100%.
Still for that read-out and setting: then `Cn1cncc1CN(Cc1ccc(C#N)cc1)c1ccc(C#N)c(-c2cccc3ccccc23)c1` [Example 231, 4-((4-cyanobenzyl)((1-methyl-1H-imidazol-5-yl)methyl)amino)-2-(1-naphthyl)benzonitrile], with 100%; and `Cn1cncc1CN(Cc1ccccc1)c1ccc(C#N)c(-c2cccc3ccccc23)c1` [Example 232, 4-(benzyl((1-methyl-1H-imidazol-5-yl)methyl)amino)-2-(1-naphthyl)benzonitrile], with 100%.
On the same count and under the same terms, for `CCCCCCN(Cc1cncn1C)c1ccc(C#N)c(-c2cccc3ccccc23)c1` [Example 233, 4-(hexyl((1-methyl-1H-imidazol-5-yl)methyl)amino)-2-(1-naphthyl)benzonitrile] the value was 100%; for `Cn1cncc1CNc1ccc(C#N)c(-c2cccc3ccccc23)c1` [Example 234, 4-(((1-methyl-1H-imidazol-5-yl)methyl)amino)-2-(1-naphthyl)benzonitrile], 100%.
On the same count and under the same terms, then `Cn1cncc1CN(C(=O)c1ccccc1)c1ccc(C#N)c(-c2cccc3ccccc23)c1` [Example 235, N-(4-cyano-3-(1-naphthyl)phenyl)-N-((1-methyl-1H-imidazol-5-yl)methyl)benzamide], with 100%.
The compound `Cc1ccccc1-c1cc(N(Cc2cncn2C)C(=O)c2ccccc2)ccc1C#N` [Example 236, N-(6-cyano-2′-methyl(1,1′-biphenyl)-3-yl)-N-((1-methyl-1H-imidazol-5-yl)methyl)benzamide] displayed an inhibition at 1 µM of 93%.
The compound `Cc1ccccc1-c1cc(N(Cc2cccc(C#N)c2)Cc2cncn2C)ccc1C#N` [Example 237, 5-((3-cyanobenzyl)((1-methyl-1H-imidazol-5-yl)methyl)amino)-2′-methyl(1,1′-biphenyl)-2-carbonitrile] came in with an inhibition at 1 µM of 100%.
Turning to `Cn1cncc1C(OCc1ccc(Cl)c(Cl)c1)c1ccc(C#N)c(-c2cccc3cccnc23)c1` (centres unmarked) [Example 240, 4-(((3,4-dichlorobenzyl)oxy)(1-methyl-1H-imidazol-5-yl)methyl)-2-(8-quinolinyl)benzonitrile dihydrochloride], the inhibition at 1 µM is 95%.
On to `Cl.Cl.Cn1cncc1C(OCc1ccc(C(F)(F)F)c(F)c1)c1ccc(C#N)c(-c2cccc3cccnc23)c1` (centres unmarked) [Example 241, 4-(((3-fluoro-4-(trifluoromethyl)benzyl)oxy)(1-methyl-1H-imidazol-5-yI)methyl)-2-(8-quinolinyl)benzonitrile dihydrochloride], for which the “% Inhibition at 10^−6M” value is 98%.
Compound `Cn1cncc1C(OCc1ccc(F)c(C(F)(F)F)c1)c1ccc(C#N)c(-c2cccc3cccnc23)c1` (centres unmarked) [Example 242, 4-(((4-fluoro-3-(trifluoromethyl)benzyl)oxy)(1-methyl-1H-imidazol-5-yl)methyl)-2-(8-quinolinyl)benzonitrile dihydrochloride] yielded an inhibition at 1 µM of 98%.
Same read-out and setting: for `Cn1cncc1C(OCc1ccc(C(=O)O)cc1)c1ccc(C#N)c(-c2cccc3cccnc23)c1` (centres unmarked) [Example 243, 4-(((4-cyano-3-(8-quinolinyl)phenyl)(1-methyl-1H-imidazol-5-yl)methoxy)methyl)benzoic acid dihydrochloride] the value was 82%.
